Results as given in patent publication US12583851B2, “Heteroaryl-substituted pyrazine derivatives as pesticides” (Elanco Animal Health GmbH, priority 2019, dated 2026).

Columns and labels:
Type in all cases: in vivo
[1] = tested on: larvae of the banded cucumber beetle (Diabrotica balteata); test: Diabrotica balteata spray test; conditions: 168 h, after 7 days, read-out: efficacy (seedling growth); for pest or weed control at 6.4 µg/disc, 20 g/ha: 20 g/ha (=6.4 μg/well); for pest or weed control at 32 µg/disc, 100 g/ha: 100 g/ha (=32 μg/well)
Protocol: Diabrotica balteata—Spray Test
Solvent: 78.0 parts by weight of acetone • • 1.5 parts by weight of dimethylformamide
(§1) Emulsifier: alkylarylpolyglycol ether
(§2) To produce a suitable preparation of active compound, 1 part by weight of active compound is mixed with the stated amount of solvent, and the concentrate is diluted with water, containing an emulsifier concentration of 1000 ppm, to the desired concentration. Further test concentrations are prepared by dilution with emulsifier containing water.
Soaked wheat seeds (Triticum aestivum) are placed in a multiple well plate filled with agar and some water and are incubated for 1 day to germinate (5 seeds per well). The germinated wheat seeds are sprayed with a test solution containing the desired concentration of the active ingredient. Afterwards each unit is infected with 10-20 larvae of the banded cucumber beetle (Diabrotica balteata).
After 7 days efficacy in % is determined. 100% means all the seedlings have grown up like in the untreated, uninfected control; 0% means none of the seedlings have grown.

[2] = tested on: fall armyworm larvae (Spodoptera frugiperda); test: Spodoptera frugiperda spray test; conditions: 168 h, maize leaf sections, after 7 days
Protocol: Spodoptera fruaiperda—Spray Test
Solvent: 78.0 parts by weight acetone • 1.5 parts by weight dimethylformamide
as §1
as §2, with “solvents” for “solvent,”, “and” for “and the concentrate”
Maize (Zea mays) leaf sections are sprayed with a preparation of the active ingredient of the desired concentration. Once dry, the leaf sections are infested with fall armyworm larvae (Spodoptera frugiperda).
After 7 days mortality in % is determined. 100% means all caterpillars have been killed and 0% means none of the caterpillars have been killed.

[3] = tested on: Rhipicephalus (Boophilus) microplus larvae (strain Parkhurst, resistant against synthetic pyrethroids); test: Rhipicephalus (Boophilus) microplus in-vitro contact test, larval cattle tick; conditions: after 48 hours, read-out: efficacy (larvae dead or moribund); for pest or weed control at 1 µg/cm2, 100 g/ha: 1 μg/cm^2 (=100 g/ha); for pest or weed control at 5 µg/cm2, 500 g/ha: 5 μg/cm^2 (=500 g/ha)
Protocol: Rhipicephalus (Boophilus) microplus—In-Vitro Contact Tests Larval Cattle Tick (Strain Parkhurst, Resistant Against Synthetic Pyrethroids)
9 mg compound is solved in 1 mL acetone and diluted with acetone to the desired concentration. […] the test solution is filled in 25 mL glass test tubes and homogeneously distributed on the inner walls by rotation and tilting on a shaking device (2 h at 30 rpm). With a compound concentration of 900 ppm, an inner surface of 44.7 cm^2 and a homogeneous distribution, a dose of 5 μg/cm^2 is achieved.
After the solvent has evaporated, each test tube is filled with 20-50 cattle tick larvae (Rhipicephalus microplus), closed with a perforated lid and incubated in a horizontal position at 85% relative humidity and 27° C. in an incubator. After 48 hours efficacy is determined. The larvae are patted on the ground of the tubes and negative geotactic behaviour is recorded.
An efficacy of 100% means all larvae are dead or moribund; 0% means no larvae are dead or moribund.

Row | Structure (SMILES) | pest or weed control at 6.4 µg/disc, 20 g/ha [1] [%] | pest or weed control at 32 µg/disc, 100 g/ha [1] [%] | mortality at 100 g/ha [2] [%] | pest or weed control at 1 µg/cm2, 100 g/ha [3] [%] | pest or weed control at 5 µg/cm2, 500 g/ha [3] [%]
1 | CCN(C)C(=O)c1cnc(-c2nc(C)cnc2C(C)NC(=O)c2cc(C(F)(F)F)cc(C(F)(F)F)c2)s1 (racemic) [Example I-152, (rac)-2-(3-{1-[3,5-Bis(trifluoromethyl)benzamido]ethyl}-6-methylpyrazin-2-yl)-N-ethyl-N-methyl-1,3-thiazole-5-carboxamide] | 100 | 100 | 100 |  | 
2 | CC(NC(=O)c1cc(C(F)(F)F)cc(C(F)(F)F)c1)c1nccnc1-c1ccc(C(=O)N(C)CC#N)cn1 (racemic) [Example I-39, (rac)-6-(3-{1-[3,5-Bis(trifluoromethyl)benzamido]ethyl}pyrazin-2-yl)-N-(cyanomethyl)-N-methylpyridine-3-carboxamide] |  | 100 | 100 |  | 
3 | CC(NC(=O)c1cc(C(F)(F)F)cc(C(F)(F)F)c1)c1nccnc1-c1ncc(C(=O)N2CCOCC2)s1 (racemic) [Example I-58, (rac)-N-[1-{3-[5-(Morpholine-4-carbonyl)-1,3-thiazol-2-yl]pyrazin-2-yl}ethyl]-3,5-bis(trifluoromethyl)benzamide] |  |  | 100 | 100 | 90
4 | CCS(=O)(=O)c1cc(Cl)cc(C(=O)NC(C)c2nccnc2-n2cc(C#N)cn2)c1 (racemic) [Example I-122, (rac)-3-Chloro-N-{1-[3-(4-cyano-1-pyrazol-1-yl)pyrazin-2-yl]ethyl}-5-(ethanesulfonyl)benzamide] |  |  | 100 | 90 | 
5 | CC(NC(=O)c1cc(Br)cc(OC(F)(F)F)c1)c1nccnc1-n1cc(C(=O)N(C)C(C)C)cn1 (racemic) [Example I-137, (rac)-1-(3-{1-[3-Bromo-5-(trifluoromethoxy)benzamido]ethyl}pyrazin-2-yl)-N-methyl-N-(propan-2-yl)-1H-pyrazole-4-carboxamide] |  |  | 100 | 100 | 100
6 | CC(NC(=O)c1cc(Br)cc(Br)c1)c1nccnc1-n1cc(C#N)cn1 (racemic) [Example I-106, (rac)-3,5-Dibromo-N-{1-[3-(4-cyano-1H-pyrazol-1-yl)pyrazin-2-yl]ethyl}benzamide] | 100 | 100 | 100 |  | 
7 | CC(NC(=O)c1cc(Br)cc(C#N)c1)c1nccnc1-n1cc(Cl)cn1 (racemic) [Example I-98, (rac)-3-Bromo-N-{1-[3-(4-chloro-1H-pyrazol-1-yl)pyrazin-2-yl]ethyl}-5-cyanobenzamide] | 100 | 100 | 100 |  | 
8 | CCN(C)C(=O)c1ccc(-c2nccnc2C(C)NC(=O)c2cc(Cl)cc(OC(F)(F)F)c2)nc1 (racemic) [Example I-36, (rac)-6-(3-{1-[3-Chloro-5-(trifluoromethoxy)benzamido]ethyl}pyrazin-2-yl)-N-ethyl-N-methylpyridine-3-carboxamide] |  | 100 | 100 |  | 
9 | CC(NC(=O)c1cc(Br)cc(OC(F)(F)F)c1)c1nccnc1-c1ccc(Cl)cn1 (centres unmarked) [Example I-22] | 100 | 100 | 100 |  | 
10 | CC(NC(=O)c1cc(OC(F)F)cc(C2CC2)c1)c1nccnc1-c1ncc(C(=O)N(C)CC#N)s1 (racemic) [Example I-142, (rac)-N-(Cyanomethyl)-2-(3-{1-[3-cyclopropyl-5-(difluoromethoxy)benzamido]ethyl}pyrazin-2-yl)-N-methyl-1,3-thiazole-5-carboxamide] |  | 100 | 100 |  | 
11 | Cc1cnc(C(C)NC(=O)c2cc(C(F)(F)F)cc(C(F)(F)F)c2)c(-c2ncc(C(=O)N(C)CC3CC3)s2)n1 (racemic) [Example I-125, (rac)-2-(3-{1-[3,5-Bis(trifluoromethyl)benzamido]ethyl}-6-methylpyrazin-2-yl)-N-(cyclopropylmethyl)-N-methyl-1,3-thiazole-5-carboxamide] |  |  | 100 | 100 | 100
12 | CC(NC(=O)c1cc(C#N)cc(C(F)(F)F)c1)c1nccnc1-c1ccc(C(F)(F)F)cn1 (racemic) [Example I-41, (rac)-3-Cyano-5-(trifluoromethyl)-N-[1-{3-[5-(trifluoromethyl)pyridin-2-yl]pyrazin-2-yl}ethyl]benzamide] | 100 |  | 83 |  | 
13 | CC(NC(=O)c1cc(Cl)cc(S(=O)(=O)c2ccc(F)cc2)c1)c1nccnc1-n1cc(C#N)cn1 (racemic) [Example I-128, (rac)-3-Chloro-N-{1-[3-(4-cyano-1H-pyrazol-1-yl)pyrazin-2-yl]ethyl}-5-(4-fluorobenzene-1-sulfonyl)benzamide] |  |  | 100 | 90 | 80
14 | CC(NC(=O)c1cc(C(F)(F)F)cc(C(F)(F)F)c1)c1nccnc1-n1cc(C(=O)N(C)C(C)C)cn1 (racemic) [Example I-136, (rac)-1-(3-{1-[3,5-Bis(trifluoromethyl)benzamido]ethyl}pyrazin-2-yl)-N-methyl-N-(propan-2-yl)-1H-pyrazole-4-carboxamide] |  |  | 100 | 100 | 100
15 | CC(NC(=O)c1cc(Cl)cc(S(C)(=O)=O)c1)c1nccnc1-c1ncc(C(=O)N(C)CC#N)s1 (racemic) [Example I-77, (rac)-2-(3-{1-[3-Chloro-5-(methanesulfonyl)benzamido]ethyl}pyrazin-2-yl)-N-(cyanomethyl)-N-methyl-1,3-thiazole-5-carboxamide] |  | 100 | 100 |  | 
16 | CC(NC(=O)c1cc(Cl)cc(OC(F)(F)F)c1)c1nccnc1-c1ncc(C(=O)N2CCOCC2)s1 (racemic) [Example I-60, (rac)-3-Chloro-N-[1-{3-[5-(morpholine-4-carbonyl)-1,3-thiazol-2-yl]pyrazin-2-yl}ethyl]-5-(trifluoromethoxy)benzamide] |  |  | 83 |  | 
17 | Cc1cnc(-c2ncc(C(=O)N(C)CC3CC3)s2)c(C(C)NC(=O)c2cc(C(F)(F)F)cc(C(F)(F)F)c2)n1 (racemic) [Example I-73, (rac)-2-(3-{1-[3,5-Bis(trifluoromethyl)benzamido]ethyl}-5-methylpyrazin-2-yl)-N-(cyclopropylmethyl)-N-methyl-1,3-thiazole-5-carboxamide] |  |  | 100 |  | 
18 | CC(NC(=O)c1cc(C(F)(F)F)cc(C(F)(F)F)c1)c1nccnc1-c1ncc(C(=O)N(C)CC#N)s1 (racemic) [Example I-67, (rac)-2-(3-{1-[3,5-Bis(trifluoromethyl)benzamido]ethyl}pyrazin-2-yl)-N-(cyanomethyl)-N-methyl-1,3-thiazole-5-carboxamide] |  | 100 | 100 |  | 
19 | CC(NC(=O)c1cc(C(F)(F)F)cc(C(F)(F)F)c1)c1nccnc1-c1ccc(C(F)(F)F)cn1 (racemic) [Example I-45, (rac)-3,5-Bis(trifluoromethyl)-N-[1-{3-[5-(trifluoromethyl)pyridin-2-yl]pyrazin-2-yl}ethyl]benzamide] |  |  | 100 |  | 
20 | CCN(C)C(=O)c1cnc(-c2ncc(C)nc2C(C)NC(=O)c2cc(C(F)(F)F)cc(C(F)(F)F)c2)s1 (racemic) [Example I-148, (rac)-2-(3-{1-[3,5-Bis(trifluoromethyl)benzamido]ethyl}-5-methylpyrazin-2-yl)-N-ethyl-N-methyl-1,3-thiazole-5-carboxamide] |  |  | 100 |  | 
21 | CC(NC(=O)c1cc(Cl)cc(C(F)(F)F)c1)c1nccnc1-n1cc(C#N)cn1 (racemic) [Example I-105, (rac)-3-Chloro-N-{1-[3-(4-cyano-1H-pyrazol-1-yl)pyrazin-2-yl]ethyl}-5-(trifluoromethyl)benzamide] |  | 100 | 100 |  | 
